PubChem BioAssay (NCI)
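Test compounds were applied to cells in 96-well plates for 48 hours at 5 doses. GI50: concentration for 50% inhibition of growth. The concentration for full growth arrest is given as TGI.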

Experiments:
Assay in all cases: inhibition of tumour cell growth, NCI panel, 48 h
[1] = system: EKVX NSCLC
[2] = system: OVCAR-4 ovarian
[3] = system: SF-268 CNS
[4] = system: SF-295 CNS
[5] = system: U251 CNS
[6] = system: MDA-MB-435
[7] = system: HL-60(TB) leukemia
[8] = system: TK-10 renal
[9] = system: UO-31 renal
[10] = system: NCI-H23 lung
[11] = system: BT-549 breast
[12] = system: CAKI-1 renal
[13] = system: SK-MEL-2 melanoma
[14] = system: SNB-19 CNS
[15] = system: COLO 205 colon
[16] = system: CCRF-CEM leukemia
[17] = system: RPMI-8226 leukemia
[18] = system: ACHN renal
[19] = system: NCI-H522 lung
[20] = system: NCI/ADR-RES ovarian
[21] = system: SK-MEL-28 melanoma
[22] = system: UACC-257 melanoma
[23] = system: RXF 393 renal
[24] = system: KM12 colon
[25] = system: HCT-15 colon
[26] = system: SR leukemia
[27] = system: HT29 colon
[28] = system: NCI-H226 lung
[29] = system: SN12C renal
[30] = system: HOP-62 NSCLC
[31] = system: MCF7 breast
[32] = system: MDA-MB-468 breast
[33] = system: PC-3 prostate
[34] = system: LOX IMVI melanoma
[35] = system: MOLT-4 leukemia
[36] = system: DU-145 prostate
[37] = system: IGROV1 ovarian
[38] = system: T-47D breast
[39] = system: OVCAR-5 ovarian
[40] = system: MALME-3M melanoma
[41] = system: HS 578T breast
[42] = system: HCT-116 colon
[43] = system: UACC-62 melanoma
[44] = system: SF-539 CNS
[45] = system: A498 renal
[46] = system: OVCAR-3 ovarian
[47] = system: HOP-92 NSCLC
[48] = system: 786-0 renal
[49] = system: OVCAR-8 ovarian
[50] = system: HCC-2998 colon
[51] = system: SNB-75 CNS
[52] = system: MDA-MB-231 breast
[53] = system: A549 NSCLC
[54] = system: SK-OV-3 ovarian
[55] = system: M14 melanoma
[56] = system: NCI-H460 lung
[57] = system: SW-620 colon
[58] = system: SK-MEL-5 melanoma
[59] = system: K-562 leukemia

## Nc1ccc(-c2ccc3ncnc(N4CCc5cc(F)c(Cl)cc54)c3c2)cn1
[1]
  GI50: 1.26 µM
  TGI: 13.8 µM
[2]
  GI50: 3.11 µM
  TGI: 18.8 µM
[3]
  GI50: 2.2 µM
  TGI: 50.2 µM
[4]
  GI50: 2.39 µM
  TGI: 16 µM
[5]
  GI50: 3.3 µM
  TGI: 24.6 µM
[6]
  GI50: 3.67 µM
  TGI: 16.9 µM
[7]
  GI50: 2.61 µM
  TGI: 20.8 µM
[8]
  GI50: 0.504 µM
  TGI: 9.78 µM
[9]
  GI50: 0.823 µM
  TGI: 14.5 µM
[10]
  GI50: 5.26 µM
  TGI: > 100 µM
[11]
  GI50: 1.35 µM
  TGI: 8.24 µM
[12]
  GI50: 1.11 µM
  TGI: 12.7 µM
[13]
  GI50: 5.55 µM
  TGI: 44.6 µM
[14]
  GI50: 2.86 µM
  TGI: 47.8 µM
[15]
  GI50: 5.58 µM
  TGI: 21.2 µM
[16]
  GI50: 3.31 µM
  TGI: 26.2 µM
[17]
  GI50: 3.51 µM
  TGI: 70.1 µM
[18]
  GI50: 0.739 µM
  TGI: 12.9 µM
[19]
  GI50: 2.37 µM
  TGI: 19.4 µM
[20]
  GI50: 3.2 µM
  TGI: 35.5 µM
[21]
  GI50: 2.76 µM
  TGI: 15.3 µM
[22]
  GI50: 5.76 µM
  TGI: 23.1 µM
[23]
  GI50: 1.14 µM
  TGI: 5.22 µM
[24]
  GI50: 6.73 µM
  TGI: 75.5 µM
[25]
  GI50: 3.49 µM
  TGI: 30.3 µM
[26]
  GI50: 3.24 µM
  TGI: > 100 µM
[27]
  GI50: 3.26 µM
  TGI: 23 µM
[28]
  GI50: 1.59 µM
  TGI: 40.8 µM
[29]
  GI50: 2.11 µM
  TGI: > 100 µM
[30]
  GI50: 1.5 µM
  TGI: 27.3 µM
[31]
  GI50: 1.77 µM
  TGI: 12.8 µM
[32]
  GI50: 0.657 µM
  TGI: 2.31 µM
[33]
  GI50: 2.3 µM
  TGI: 27 µM
[34]
  GI50: 3.31 µM
  TGI: 24.6 µM
[35]
  GI50: 2.68 µM
  TGI: 8.4 µM
[36]
  GI50: 1.61 µM
  TGI: 15.8 µM
[37]
  GI50: 0.639 µM
  TGI: 2.88 µM
[38]
  GI50: 0.895 µM
  TGI: 10.2 µM
[39]
  GI50: 2.32 µM
  TGI: > 100 µM
[40]
  GI50: 1.57 µM
  TGI: 10.1 µM
[41]
  GI50: 1.14 µM
  TGI: 4.6 µM
[42]
  GI50: 3.91 µM
  TGI: 28.3 µM
[43]
  GI50: 1.91 µM
  TGI: 14.6 µM
[44]
  GI50: 2.83 µM
  TGI: 13.3 µM
[45]
  GI50: 0.185 µM
  TGI: 2.56 µM
[46]
  GI50: 1.35 µM
  TGI: 12.3 µM
[47]
  GI50: 2.37 µM
  TGI: 20.7 µM
[48]
  GI50: 1.82 µM
  TGI: 14.7 µM
[49]
  GI50: 4.31 µM
  TGI: > 100 µM
[50]
  GI50: 4.3 µM
  TGI: 66.1 µM
[51]
  GI50: 0.545 µM
  TGI: 4.21 µM
[52]
  GI50: 2.84 µM
  TGI: 15.2 µM
[53]
  GI50: 1.55 µM
  TGI: 15.3 µM
[54]
  GI50: 2.18 µM
  TGI: 7.09 µM
[55]
  GI50: 3.69 µM
  TGI: 18 µM
[56]
  GI50: 2.73 µM
  TGI: 15.8 µM
[57]
  GI50: 5.96 µM
  TGI: 27.5 µM
[58]
  GI50: 3.07 µM
  TGI: 14.4 µM
[59]
  GI50: 6.24 µM
  TGI: > 100 µM

## COc1ccc(CCN2C(=O)/C(=C/c3csc(C#N)n3)SC2=S)cc1OC
[1]
  GI50: 22.2 µM
  TGI: 60 µM
[2]
  GI50: 11.4 µM
  TGI: 32.9 µM
[3]
  GI50: 12.2 µM
  TGI: 27 µM
[4]
  GI50: 83.8 µM
  TGI: > 100 µM
[5]
  GI50: 14.8 µM
  TGI: 29.9 µM
[6]
  GI50: 13.6 µM
  TGI: 29.3 µM
[7]
  GI50: 14.6 µM
  TGI: 40.1 µM
[8]
  GI50: 3.13 µM
  TGI: 10.3 µM
[9]
  GI50: 5.08 µM
  TGI: 23.9 µM
[10]
  GI50: 14.6 µM
  TGI: 28 µM
[11]
  GI50: 11.4 µM
  TGI: 24.2 µM
[12]
  GI50: 16.5 µM
  TGI: 33.3 µM
[13]
  GI50: 13.3 µM
  TGI: 28.6 µM
[14]
  GI50: 20.7 µM
  TGI: 54 µM
[15]
  GI50: 21.6 µM
  TGI: 87.5 µM
[16]
  GI50: 3.38 µM
  TGI: 11.4 µM
[17]
  GI50: 3.03 µM
  TGI: 19.9 µM
[18]
  GI50: 13.4 µM
  TGI: 31.4 µM
[19]
  GI50: 2.68 µM
  TGI: 13.5 µM
[20]
  GI50: 16.3 µM
  TGI: 35.7 µM
[21]
  GI50: 12.1 µM
  TGI: 25.3 µM
[22]
  GI50: 11 µM
  TGI: 34 µM
[23]
  GI50: 3.56 µM
  TGI: 12.6 µM
[24]
  GI50: 3.71 µM
  TGI: 15.2 µM
[25]
  GI50: 5.3 µM
  TGI: 20.9 µM
[26]
  GI50: 2.46 µM
  TGI: 8.72 µM
[27]
  GI50: 13.5 µM
  TGI: 27.6 µM
[28]
  GI50: 15.8 µM
  TGI: 41.5 µM
[29]
  GI50: 11.9 µM
  TGI: 26.4 µM
[30]
  GI50: 22 µM
  TGI: 69.6 µM
[31]
  GI50: 3.3 µM
  TGI: 15.7 µM
[32]
  GI50: 2.67 µM
  TGI: 14.9 µM
[33]
  GI50: 15.6 µM
  TGI: 37.9 µM
[34]
  GI50: 2.9 µM
  TGI: 10.6 µM
[35]
  GI50: 3.94 µM
  TGI: 25.4 µM
[36]
  GI50: 2.96 µM
  TGI: 10.5 µM
[37]
  GI50: 18.2 µM
  TGI: 41.7 µM
[38]
  GI50: 3.22 µM
  TGI: 20.6 µM
[39]
  GI50: 21.2 µM
  TGI: 69.5 µM
[40]
  GI50: 11.9 µM
  TGI: 29.7 µM
[41]
  GI50: 19.8 µM
  TGI: 72.9 µM
[42]
  GI50: 4.55 µM
  TGI: 16.9 µM
[43]
  GI50: 11.5 µM
  TGI: 23.9 µM
[44]
  GI50: 12.5 µM
  TGI: 25 µM
[45]
  GI50: 18.6 µM
  TGI: 68 µM
[46]
  GI50: 4.99 µM
  TGI: 18 µM
[47]
  GI50: 2.12 µM
  TGI: 8.56 µM
[48]
  GI50: 5.56 µM
  TGI: 18.9 µM
[49]
  GI50: 15.4 µM
  TGI: 30.5 µM
[50]
  GI50: 15.3 µM
  TGI: 29.9 µM
[51]
  GI50: 22.6 µM
  TGI: > 100 µM
[52]
  GI50: 12 µM
  TGI: 28.8 µM
[53]
  GI50: 35 µM
  TGI: > 100 µM
[54]
  GI50: 66.8 µM
  TGI: > 100 µM
[55]
  GI50: 13.8 µM
  TGI: 49.1 µM
[56]
  GI50: 17.4 µM
  TGI: 38.7 µM
[57]
  GI50: 3.15 µM
  TGI: 11.7 µM
[58]
  GI50: 13.6 µM
  TGI: 28.8 µM
[59]
  GI50: 2.97 µM
  TGI: 15.5 µM
